Laboratory results taken from patent publication US9409908B2 (priority 2012, dated 2016).
Counter-ions that a name gives are not always drawn.

Experiments:
[1] = molecular target: purified human plasma kallikrein (Homo sapiens (Human), UniProt P03952); test: biochemical; format: biochemical; conditions: read-out: Plasma Kallikrein Ki
[2] = molecular target: purified human Factor XIa (Homo sapiens (Human), UniProt P03951); test: biochemical; format: biochemical; conditions: read-out: Factor XIa Ki
purified human Factor XIa, sequence (P03951 whole entry, looked up): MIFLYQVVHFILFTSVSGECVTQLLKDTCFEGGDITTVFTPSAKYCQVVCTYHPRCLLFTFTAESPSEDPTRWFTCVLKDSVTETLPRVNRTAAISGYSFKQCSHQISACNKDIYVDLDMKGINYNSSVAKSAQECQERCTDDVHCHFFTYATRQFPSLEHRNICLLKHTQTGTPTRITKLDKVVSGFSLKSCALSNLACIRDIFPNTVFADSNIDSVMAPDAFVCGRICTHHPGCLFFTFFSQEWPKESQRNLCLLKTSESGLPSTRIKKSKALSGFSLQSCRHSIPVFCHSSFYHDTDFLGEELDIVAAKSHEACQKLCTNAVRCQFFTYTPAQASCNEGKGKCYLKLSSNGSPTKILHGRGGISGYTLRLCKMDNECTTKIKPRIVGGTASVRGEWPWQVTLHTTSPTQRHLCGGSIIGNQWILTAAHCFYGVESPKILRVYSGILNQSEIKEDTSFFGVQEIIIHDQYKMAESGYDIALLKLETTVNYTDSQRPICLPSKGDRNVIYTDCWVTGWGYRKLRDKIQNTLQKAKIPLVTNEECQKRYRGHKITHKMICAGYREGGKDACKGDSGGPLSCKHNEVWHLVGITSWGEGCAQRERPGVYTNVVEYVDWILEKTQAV
purified human Factor XIa, sequence (P03951 whole entry partner, looked up): as the sequence (P03951 whole entry, looked up) above

purified human plasma kallikrein, sequence (P03952 whole entry, looked up): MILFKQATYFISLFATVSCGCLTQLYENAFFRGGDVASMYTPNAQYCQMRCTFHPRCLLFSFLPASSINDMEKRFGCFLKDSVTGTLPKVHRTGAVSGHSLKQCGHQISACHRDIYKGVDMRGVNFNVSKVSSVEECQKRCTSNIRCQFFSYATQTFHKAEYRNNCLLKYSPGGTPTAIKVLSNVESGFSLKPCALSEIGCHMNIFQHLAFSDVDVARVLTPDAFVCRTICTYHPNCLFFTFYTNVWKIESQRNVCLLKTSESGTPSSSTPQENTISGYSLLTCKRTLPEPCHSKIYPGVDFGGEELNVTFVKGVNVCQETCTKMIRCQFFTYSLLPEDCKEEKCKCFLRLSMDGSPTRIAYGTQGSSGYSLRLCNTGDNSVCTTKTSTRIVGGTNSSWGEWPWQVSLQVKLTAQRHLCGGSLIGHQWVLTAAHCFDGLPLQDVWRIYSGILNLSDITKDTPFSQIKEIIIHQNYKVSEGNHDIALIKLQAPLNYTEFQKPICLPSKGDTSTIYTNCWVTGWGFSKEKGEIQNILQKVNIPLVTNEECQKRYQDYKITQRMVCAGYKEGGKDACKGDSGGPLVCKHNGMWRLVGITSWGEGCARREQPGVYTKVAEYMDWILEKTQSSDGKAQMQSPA
purified human plasma kallikrein, sequence (P03952 whole entry partner, looked up): as the sequence (P03952 whole entry, looked up) above

Compound `Cc1ccc2c(c1)-c1ccnc(c1)[C@@H](N1CCC(c3c(F)ccc(Cl)c3F)=CC1=O)CCC[C@@H](C)C(=O)N2` [Example 141, (10R,14S)-14-[4-(3-chloro-2,6-difluorophenyl)-6-oxo-1,2,3,6-tetrahydropyridin-1-yl]-4,10-dimethyl-8,16-diazatricyclo[13.3.1.0^2,7]nonadeca-1(19),2(7),3,5,15,17-hexaen-9-one] has a Ki [1] of 0.123 µM and a Ki [2] of 0.0989 µM.

For `C[C@@H]1CCC[C@H](N2CCC(c3c(F)ccc(Cl)c3F)=CC2=O)c2cc(ccn2)-c2cc(F)c(N)cc2NC1=O` [Example 143, (10R,14S)-5-amino-14-[4-(3-chloro-2,6-difluorophenyl)-6-oxo-1,2,3,6-tetrahydropyridin-1-yl]-4-fluoro-10-methyl-8,16-diazatricyclo[13.3.1.0^2,7]nonadeca-1(19),2(7),3,5,15,17-hexaen-9-one], the Ki [1] was 0.00338 µM and the Ki [2] was 0.00131 µM.

With `COC(=O)c1ccc2c(c1)-c1ccnc(c1)[C@@H](N1CCC(c3c(F)ccc(Cl)c3F)=CC1=O)CCC[C@@H](C)C(=O)N2` [Example 144, Methyl (10R,14S)-14-[4-(3-chloro-2,6-difluorophenyl)-6-oxo-1,2,3,6-tetrahydropyridin-1-yl]-10-methyl-9-oxo-8,16-diazatricyclo[13.3.1.0^2,7]nonadeca-1(19),2(7),3,5,15,17-hexaene-4-carboxylate] the Ki [1] was 0.108 µM and the Ki [2] was 0.186 µM.

Work on `C[C@@H]1CCC[C@H](N2CCC(c3c(Br)ccc(Cl)c3F)=CC2=O)c2cc(ccn2)-c2cc(F)ccc2NC1=O` [Example 147, (10R,14S)-14-[4-(6-bromo-3-chloro-2-fluorophenyl)-6-oxo-1,2,3,6-tetrahydropyridin-1-yl]-4-fluoro-10-methyl-8,16-diazatricyclo[13.3.1.0^2,7]nonadeca-1(19),2(7),3,5,15,17-hexaen-9-one] yielded a Ki [1] of 0.00751 µM and a Ki [2] of 0.00359 µM.

With `C[C@@H]1CCC[C@H](N2CCC(c3c(F)ccc(Cl)c3F)=CC2=O)c2cc(ccn2)-c2cc(CO)ccc2NC1=O` [Example 148, (10R,14S)-14-[4-(3-chloro-2,6-difluorophenyl)-6-oxo-1,2,3,6-tetrahydropyridin-1-yl]-4-(hydroxymethyl)-10-methyl-8,16-diazatricyclo[13.3.1.0^2,7]nonadeca-1(19),2(7),3,5,15,17-hexaen-9-one] the Ki [1] was 0.118 µM and the Ki [2] was 0.0901 µM.

`C[C@@H]1CCC[C@H](N2CCC(c3c(F)ccc(Cl)c3F)=CC2=O)c2cc(ccn2)-c2ccc(CO)cc2NC1=O` [Example 149, (10R,14S)-14-[4-(3-chloro-2,6-difluorophenyl)-6-oxo-1,2,3,6-tetrahydropyridin-1-yl]-5-(hydroxymethyl)-10-methyl-8,16-diazatricyclo[13.3.1.0^2,7]nonadeca-1(19),2(7),3,5,15,17-hexaen-9-one] showed a Ki [1] of 0.0226 µM and a Ki [2] of 0.0175 µM.

Work on `C[C@@H]1CCC[C@H](N2CCC(c3c(C#N)ccc(Cl)c3F)=CC2=O)c2cc(ccn2)-c2cc(F)ccc2NC1=O` [Example 150, 4-chloro-3-fluoro-2-{1-[(10R,14S)-4-fluoro-10-methyl-9-oxo-8,16-diazatricyclo[13.3.1.0^2,7]nonadeca-1(19),2(7),3,5,15,17-hexaen-14-yl]-6-oxo-1,2,3,6-tetrahydropyridin-4-yl}benzonitrile] yielded a Ki [1] of 0.00227 µM and a Ki [2] of 0.00099 µM.

In the case of `COC(=O)Nc1ccc2c(c1)C(=O)NCCCCC[C@H](N1CCC(c3c(F)ccc(Cl)c3F)=CC1=O)c1cc-2ccn1` [Example 152, Methyl N-[(15S)-15-[4-(3-chloro-2,6-difluorophenyl)-6-oxo-1,2,3,6-tetrahydropyridin-1-yl]-8-oxo-9,17-diazatricyclo[14.3.1.0^2,7]icosa-1(20),2(7),3,5,16,18-hexaen-5-yl]carbamate, TFA salt], the Ki [1] is reported as 0.0243 µM and the Ki [2] is reported as 0.0256 µM.

`COC(=O)Nc1ccc2c(c1)NC(=O)[C@H](C)CCC[C@H](N1CCC(c3ccnc(N)c3)=CC1=O)c1cc-2ccn1` [Example 154, Methyl N-[(10R,14S)-14-[4-(2-aminopyridin-4-yl)-6-oxo-1,2,3,6-tetrahydropyridin-1-yl]-10-methyl-9-oxo-8,16-diazatricyclo[13.3.1.0^2,7]nonadeca-1(19),2,4,6,15,17-hexaen-5-yl]carbamate, 2 TFA salt] was tested, and the Ki [1] was 0.118 µM and the Ki [2] was 0.0236 µM.

With `COC(=O)Nc1ccc2c(c1)NC(=O)[C@H](C)CCC[C@H](N1CCC(C3CCNCC3)=CC1=O)c1cc-2ccn1` [Example 155, Methyl N-[(10R,14S)-10-methyl-9-oxo-14-[6-oxo-4-(piperidin-4-yl)-1,2,3,6-tetrahydropyridin-1-yl]-8,16-diazatricyclo[13.3.1.0^2,7]nonadeca-1(19),2,4,6,15,17-hexaen-5-yl]carbamate, 2 TFA salt] the Ki [1] was 0.199 µM and the Ki [2] was 0.00488 µM.

`COC(=O)Nc1ccc2c(c1)NC(=O)[C@H](C)CCC[C@H](N1CCC(c3cccc(Cl)n3)=CC1=O)c1cc-2ccn1` [Example 157, Methyl N-[(10R,14S)-14-[4-(6-chloropyridin-2-yl)-6-oxo-1,2,3,6-tetrahydropyridin-1-yl]-10-methyl-9-oxo-8,16-diazatricyclo[13.3.1.0^2,7]nonadeca-1(19),2,4,6,15,17-hexaen-5-yl]carbamate, 2 TFA salt] gave a Ki [1] of 0.108 µM and a Ki [2] of 0.0749 µM.

In the case of `COC(=O)Nc1ccc2c(c1)NC(=O)[C@H](C)CCC[C@H](N1CCC(C3CCCCN3C)=CC1=O)c1cc-2ccn1` (stereo partly drawn) [Example 158, Methyl N-[(10R,14S)-10-methyl-14-[4-(1-methylpiperidin-2-yl)-6-oxo-1,2,3,6-tetrahydropyridin-1-yl]-9-oxo-8,16-diazatricyclo[13.3.1.0^2,7]nonadeca-1(19),2,4,6,15,17-hexaen-5-yl]carbamate, 2 TFA salt], the Ki [1] is reported as 10.9 µM and the Ki [2] is reported as > 0.404 µM.

`COC(=O)Nc1ccc2c(c1)NC(=O)[C@H](C)CCC[C@H](N1CCC(C3CCCC(C)C3)=CC1=O)c1cc-2ccn1` (stereo partly drawn) [Example 159, Methyl N-[(10R,14S)-10-methyl-14-[4-(3-methylcyclohexyl)-6-oxo-1,2,3,6-tetrahydropyridin-1-yl]-9-oxo-8,16-diazatricyclo[13.3.1.0^2,7]nonadeca-1(19),2,4,6,15,17-hexaen-5-yl]carbamate, TFA salt (diastereomeric isomers)] gave a Ki [1] of 0.0589 µM and a Ki [2] of 0.0632 µM.

With `COC(=O)Nc1ccc2c(c1)NC(=O)[C@H](C)CCC[C@H](N1CCC(c3c(Br)ccc(Cl)c3F)=CC1=O)c1cccc-2c1` [Example 161, Methyl N-[(10R,14S)-14-[4-(6-bromo-3-chloro-2-fluorophenyl)-6-oxo-1,2,3,6-tetrahydropyridin-1-yl]-10-methyl-9-oxo-8-azatricyclo[13.3.1.0^2,7]nonadeca-1(19),2,4,6,15,17-hexaen-5-yl]carbamate] the Ki [1] was 0.0216 µM and the Ki [2] was 0.00059 µM.

In the case of `C[C@@H]1CCC[C@H](N2CCC(c3c(F)ccc(Cl)c3F)=CC2=O)c2cccc(c2)-c2ccccc2NC1=O` [Example 162, (10R,14S)-14-[4-(3-chloro-2,6-difluorophenyl)-6-oxo-1,2,3,6-tetrahydropyridin-1-yl]-10-methyl-8-azatricyclo[13.3.1.0^2,7]nonadeca-1(19),2,4,6,15,17-hexaen-9-one], the Ki [1] is reported as 0.125 µM and the Ki [2] is reported as 0.0765 µM.

With `COC(=O)c1ccc2c(c1)-c1cccc(c1)[C@@H](N1CCC(c3c(Br)ccc(Cl)c3F)=CC1=O)CCC[C@@H](C)C(=O)N2` [Example 163, Methyl (10R,14S)-14-[4-(6-bromo-3-chloro-2-fluorophenyl)-6-oxo-1,2,3,6-tetrahydropyridin-1-yl]-10-methyl-9-oxo-8-azatricyclo[13.3.1.0^2,7]nonadeca-1(19),2,4,6,15,17-hexaene-4-carboxylate] the Ki [1] was 0.224 µM and the Ki [2] was > 0.398 µM.

`COC(=O)c1ccc2c(c1)-c1cccc(c1)[C@@H](N1CCC(c3c(F)ccc(Cl)c3F)=CC1=O)CCC[C@@H](C)C(=O)N2` [Example 164, Methyl (10R,14S)-14-[4-(3-chloro-2,6-difluorophenyl)-6-oxo-1,2,3,6-tetrahydropyridin-1-yl]-10-methyl-9-oxo-8-azatricyclo[13.3.1.0^2,7]nonadeca-1(19),2,4,6,15,17-hexaene-4-carboxylate] was tested, and the Ki [1] was 0.442 µM and the Ki [2] was > 0.398 µM.

In the case of `COC(=O)c1ccc2c(c1)-c1cccc(c1)[C@H](N1CCC(c3c(F)ccc(Cl)c3F)=CC1=O)CCC[C@@H](C)C(=O)N2` [Example 165, Methyl (10R,14R)-14-[4-(3-chloro-2,6-difluorophenyl)-6-oxo-1,2,3,6-tetrahydropyridin-1-yl]-10-methyl-9-oxo-8-azatricyclo[13.3.1.0^2,7]nonadeca-1(19),2,4,6,15,17-hexaene-4-carboxylate], the Ki [1] is reported as 9.47 µM and the Ki [2] is reported as > 0.398 µM.

Work on `C[C@@H]1CCC[C@H](N2CCC(c3c(F)ccc(Cl)c3F)=CC2=O)c2cccc(c2)-c2cc(C(=O)O)ccc2NC1=O` [Example 166, (10R,14S)-14-[4-(3-chloro-2,6-difluorophenyl)-6-oxo-1,2,3,6-tetrahydropyridin-1-yl]-10-methyl-9-oxo-8-azatricyclo[13.3.1.0^2,7]nonadeca-1(19),2,4,6,15,17-hexaene-4-carboxylic acid] yielded a Ki [1] of 0.113 µM and a Ki [2] of 0.00638 µM.

In the case of `C[C@@H]1CCC[C@H](N2CCC(c3c(Br)ccc(Cl)c3F)=CC2=O)c2cccc(c2)-c2cc(C(=O)O)ccc2NC1=O` [Example 167, (10R,14S)-14-[4-(6-bromo-3-chloro-2-fluorophenyl)-6-oxo-1,2,3,6-tetrahydropyridin-1-yl]-10-methyl-9-oxo-8-azatricyclo[13.3.1.0^2,7]nonadeca-1(19),2,4,6,15,17-hexaene-4-carboxylic acid], the Ki [1] is reported as 0.0201 µM and the Ki [2] is reported as 0.00081 µM.

For `COC(=O)c1ccc2c(c1)-c1cccc(c1)[C@@H](N1CCC(c3c(C#N)ccc(C#N)c3F)=CC1=O)CCC[C@@H](C)C(=O)N2` [Example 168, Methyl (10R,14S)-14-[4-(3,6-dicyano-2-fluorophenyl)-6-oxo-1,2,3,6-tetrahydropyridin-1-yl]-10-methyl-9-oxo-8-azatricyclo[13.3.1.0^2,7]nonadeca-1(18),2,4,6,15(19),16-hexaene-4-carboxylate], the Ki [1] was 1.92 µM and the Ki [2] was > 0.417 µM.
